Among the data in US9066905B2, “Synthetic peptides and methods of use for autoimmune disease therapies” (President and Fellows of Harvard College, priority 1998, dated 2015) are IC50 values, retold here.

Assay [1] deals with HLA-DR4 (DRB1*0401) molecules (Homo sapiens, UniProt P01903+P01911, A100K/A169T/F76Y/I96L/K127E/L162R/M171V/N62H/P40V/Q125Y/R42H/S133A/S149N/S66Y/V115G/V209L/W38E). In words: Competitive binding assay with recombinant water-soluble HLA-DR4.
Assay [2] deals with HLA-DR1 (DRB1*0101) molecules (Homo sapiens, UniProt P01903+P01911, A100R/D57E/F55L/F60I/F76Y/I96L/L162R/M171V/P40L/Q125E/R42F/V115G/Y59C). The assay is described as follows: Competitive binding assay with recombinant water-soluble HLA-DR1.
Setting [3] is: Affinity for HLA-DR4 (DRB1*0401) molecules determined by competition with biotinylated competitor HA 306-318, biotinylated competitor HA306-318.
Setting [4] is: Affinity for HLA-DR1 (DRB1*0101) molecules determined by competition with biotinylated competitor HA 306-318, biotinylated competitor HA306-318.
Setting [5] is: biotinylated competitor YEAK, read-out: Affinity for HLA-DR1 (DRB1*0101) molecules determined by competition with biotinylated competitor YEAK.
[6] abbreviates: biotinylated competitor YEAK, read-out: Affinity for HLA-DR4 (DRB1*0401) molecules determined by competition with biotinylated competitor YEAK.

Read-outs that look alike come from different tables or passages of the source. Residues, ends and D or L forms follow the SMILES beside them.

Regarding `C[C@H](N)C(=O)N[C@@H](Cc1ccc(O)cc1)C(=O)N[C@@H](CCCCN)C(=O)N[C@@H](C)C(=O)N[C@@H](CCC(=O)O)C(=O)N[C@@H](C)C(=O)N[C@@H](C)C(=O)N[C@@H](C)C(=O)N[C@@H](C)C(=O)N[C@@H](C)C(=O)N[C@@H](C)C(=O)N[C@@H](C)C(=O)N[C@@H](C)C(=O)N[C@@H](C)C(=O)N[C@@H](C)C(=O)O` [compound 35], the IC50 in assay [1] (setting [3]) is 1.3 µM.
Consider `C[C@H](N)C(=O)N[C@@H](CCCCN)C(=O)N[C@@H](CCCCN)C(=O)N[C@@H](Cc1ccc(O)cc1)C(=O)N[C@@H](CCC(=O)O)C(=O)N[C@@H](C)C(=O)N[C@@H](C)C(=O)N[C@@H](C)C(=O)N[C@@H](C)C(=O)N[C@@H](C)C(=O)N[C@@H](C)C(=O)N[C@@H](C)C(=O)N[C@@H](C)C(=O)N[C@@H](C)C(=O)N[C@@H](C)C(=O)O` [compound 21], for which the IC50 in assay [1] (setting [3]) stood at 2.2 µM.
Consider `C[C@H](N)C(=O)N[C@@H](C)C(=O)N[C@@H](CCC(=O)O)C(=O)N[C@@H](Cc1ccc(O)cc1)C(=O)N[C@@H](C)C(=O)N[C@@H](C)C(=O)N[C@@H](C)C(=O)N[C@@H](C)C(=O)N[C@@H](C)C(=O)N[C@@H](C)C(=O)N[C@@H](CCCCN)C(=O)N[C@@H](C)C(=O)N[C@@H](C)C(=O)N[C@@H](C)C(=O)N[C@@H](C)C(=O)O` [compound 12], for which the IC50 was determined as 47 µM in assay [2] (setting [4]) and 3.2 µM in assay [1] (setting [3]).
As for `C[C@H](N)C(=O)N[C@@H](CCCCN)C(=O)N[C@@H](Cc1ccc(O)cc1)C(=O)N[C@@H](C)C(=O)N[C@@H](CCC(=O)O)C(=O)N[C@@H](C)C(=O)N[C@@H](C)C(=O)N[C@@H](C)C(=O)N[C@@H](C)C(=O)N[C@@H](C)C(=O)N[C@@H](C)C(=O)N[C@@H](C)C(=O)N[C@@H](C)C(=O)N[C@@H](C)C(=O)N[C@@H](C)C(=O)O` [compound 36], in assay [1] (setting [3]), the IC50 was 3 µM.
Consider `C[C@H](N)C(=O)N[C@@H](CCCCN)C(=O)N[C@@H](CCC(=O)O)C(=O)N[C@@H](Cc1ccc(O)cc1)C(=O)N[C@@H](C)C(=O)N[C@@H](C)C(=O)N[C@@H](C)C(=O)N[C@@H](C)C(=O)N[C@@H](C)C(=O)N[C@@H](C)C(=O)N[C@@H](CCCCN)C(=O)N[C@@H](C)C(=O)N[C@@H](C)C(=O)N[C@@H](C)C(=O)N[C@@H](C)C(=O)O` [compound 7] (H-AKEYAAAAAAKAAAA-OH), for which the IC50 in assay [2] (setting [4]) was 19 µM; in assay [1] (setting [3]), 4.5 µM.
In the case of `C[C@H](NC(=O)[C@H](C)NC(=O)[C@H](C)NC(=O)[C@H](C)NC(=O)[C@H](CCCCN)NC(=O)[C@H](C)NC(=O)[C@H](C)NC(=O)[C@H](C)NC(=O)[C@H](C)NC(=O)[C@H](C)NC(=O)[C@H](C)NC(=O)[C@H](Cc1ccc(O)cc1)NC(=O)[C@H](C)NC(=O)[C@H](C)NC(=O)[C@@H](N)CCC(=O)O)C(=O)O` [compound 16] (H-EAAYAAAAAAKAAAA-OH), the IC50 in assay [1] (setting [3]) came out at 5 µM.
Consider `CC(C)C[C@H](NC(=O)[C@H](CCCCN)NC(=O)[C@H](CC(C)C)NC(=O)[C@@H](NC(=O)[C@H](CC(N)=O)NC(=O)[C@H](CCC(N)=O)NC(=O)[C@H](CCCCN)NC(=O)[C@@H](NC(=O)[C@H](Cc1ccc(O)cc1)NC(=O)[C@H](CCCCN)NC(=O)[C@@H]1CCCN1C(=O)[C@H](C)N)C(C)C)[C@@H](C)O)C(=O)N[C@@H](C)C(=O)N[C@H](C(=O)N[C@@H](C)C(=O)O)[C@@H](C)O` [compound 4], for which the IC50 in assay [2] (setting [4]) came out at 13 µM; in assay [2] (setting [5]), 3.3 µM; in assay [1] (setting [3]), 26 µM; in assay [1] (setting [6]) it was 8.2 µM.
Consider `C[C@H](NC(=O)[C@H](C)NC(=O)[C@H](C)NC(=O)[C@H](C)NC(=O)[C@H](CCCCN)NC(=O)[C@H](C)NC(=O)[C@H](C)NC(=O)[C@H](C)NC(=O)[C@H](C)NC(=O)[C@H](C)NC(=O)[C@H](C)NC(=O)[C@H](Cc1ccc(O)cc1)NC(=O)[C@H](C)NC(=O)[C@H](CCCCN)NC(=O)[C@@H](N)CCC(=O)O)C(=O)O` [compound 13] (H-EKAYAAAAAAKAAAA-OH), for which the IC50 in assay [1] (setting [3]) came out at 3.3 µM.
Take `C[C@H](N)C(=O)N[C@@H](CCC(=O)O)C(=O)N[C@@H](CCCCN)C(=O)N[C@@H](C)C(=O)N[C@@H](Cc1ccc(O)cc1)C(=O)N[C@@H](C)C(=O)N[C@@H](C)C(=O)N[C@@H](C)C(=O)N[C@@H](C)C(=O)N[C@@H](C)C(=O)N[C@@H](C)C(=O)N[C@@H](C)C(=O)N[C@@H](C)C(=O)N[C@@H](C)C(=O)N[C@@H](C)C(=O)O` [compound 33]: in assay [1] (setting [3]), the IC50 was less than 1 µM.
As to `C[C@H](NC(=O)[C@H](C)NC(=O)[C@H](C)NC(=O)[C@H](C)NC(=O)[C@H](CCCCN)NC(=O)[C@H](C)NC(=O)[C@H](C)NC(=O)[C@H](C)NC(=O)[C@H](C)NC(=O)[C@H](C)NC(=O)[C@H](C)NC(=O)[C@H](Cc1ccc(O)cc1)NC(=O)[C@H](CCCCN)NC(=O)[C@H](C)NC(=O)[C@@H](N)CCC(=O)O)C(=O)O` [compound 18] (H-EAKYAAAAAAKAAAA-OH), the IC50 in assay [2] (setting [4]) worked out at 33 µM; in assay [1] (setting [3]), 4.4 µM; in assay [1] (setting [6]) it was 3 µM.
Regarding `C[C@H](N)C(=O)N[C@@H](C)C(=O)N[C@@H](CCC(=O)O)C(=O)N[C@@H](Cc1ccc(O)cc1)C(=O)N[C@@H](CCCCN)C(=O)N[C@@H](C)C(=O)N[C@@H](C)C(=O)N[C@@H](C)C(=O)N[C@@H](C)C(=O)N[C@@H](C)C(=O)N[C@@H](C)C(=O)N[C@@H](C)C(=O)N[C@@H](C)C(=O)N[C@@H](C)C(=O)N[C@@H](C)C(=O)O` [compound 26], the IC50 in assay [1] (setting [3]) worked out at 1.8 µM.
Turning to `C[C@H](N)C(=O)N[C@@H](C)C(=O)N[C@@H](C)C(=O)N[C@@H](Cc1ccc(O)cc1)C(=O)N[C@@H](C)C(=O)N[C@@H](C)C(=O)N[C@@H](C)C(=O)N[C@@H](C)C(=O)N[C@@H](C)C(=O)N[C@@H](C)C(=O)N[C@@H](CCCCN)C(=O)N[C@@H](C)C(=O)N[C@@H](C)C(=O)N[C@@H](C)C(=O)N[C@@H](C)C(=O)O` [compound 5] (H-AAAYAAAAAAKAAAA-OH), the IC50 in assay [1] (setting [3]) was 7 µM.
On to `C[C@H](N)C(=O)N[C@@H](C)C(=O)N[C@@H](CCCCN)C(=O)N[C@@H](Cc1ccc(O)cc1)C(=O)N[C@@H](C)C(=O)N[C@@H](CCC(=O)O)C(=O)N[C@@H](C)C(=O)N[C@@H](C)C(=O)N[C@@H](C)C(=O)N[C@@H](C)C(=O)N[C@@H](CCCCN)C(=O)N[C@@H](C)C(=O)N[C@@H](C)C(=O)N[C@@H](C)C(=O)N[C@@H](C)C(=O)O` [compound 15] (H-AAKYAEAAAAKAAAA-OH), for which the IC50 in assay [2] (setting [4]) was 42 µM; in assay [2] (setting [5]), 16 µM; in assay [1] (setting [3]), 1.8 µM; in assay [1] (setting [6]), less than 1 µM.
In the case of `C[C@H](N)C(=O)N[C@@H](C)C(=O)N[C@@H](CCCCN)C(=O)N[C@@H](Cc1ccc(O)cc1)C(=O)N[C@@H](CCC(=O)O)C(=O)N[C@@H](C)C(=O)N[C@@H](C)C(=O)N[C@@H](C)C(=O)N[C@@H](C)C(=O)N[C@@H](C)C(=O)N[C@@H](CCCCN)C(=O)N[C@@H](C)C(=O)N[C@@H](C)C(=O)N[C@@H](C)C(=O)N[C@@H](C)C(=O)O` [compound 14] (H-AAKYEAAAAAKAAAA-OH), the IC50 in assay [1] (setting [3]) was determined as 4 µM.
Take `C[C@H](N)C(=O)N[C@@H](CCC(=O)O)C(=O)N[C@@H](CCC(=O)O)C(=O)N[C@@H](Cc1ccc(O)cc1)C(=O)N[C@@H](C)C(=O)N[C@@H](C)C(=O)N[C@@H](C)C(=O)N[C@@H](C)C(=O)N[C@@H](C)C(=O)N[C@@H](C)C(=O)N[C@@H](CCCCN)C(=O)N[C@@H](C)C(=O)N[C@@H](C)C(=O)N[C@@H](C)C(=O)N[C@@H](C)C(=O)O` [compound 11]: in assay [1] (setting [3]), the IC50 amounted to 2 µM.
Still for that read-out and setting: as for `C[C@H](NC(=O)[C@H](C)NC(=O)[C@H](C)NC(=O)[C@H](C)NC(=O)[C@H](CCCCN)NC(=O)[C@H](C)NC(=O)[C@H](C)NC(=O)[C@H](C)NC(=O)[C@H](C)NC(=O)[C@H](C)NC(=O)[C@H](C)NC(=O)[C@H](Cc1ccc(O)cc1)NC(=O)[C@H](CCCCN)NC(=O)[C@H](CCCCN)NC(=O)[C@@H](N)CCC(=O)O)C(=O)O` [compound 17] (H-EKKYAAAAAAKAAAA-OH), the figure is 1.8 µM; as for `C[C@H](N)C(=O)N[C@@H](CCC(=O)O)C(=O)N[C@@H](Cc1ccc(O)cc1)C(=O)N[C@@H](C)C(=O)N[C@@H](CCCCN)C(=O)N[C@@H](C)C(=O)N[C@@H](C)C(=O)N[C@@H](C)C(=O)N[C@@H](C)C(=O)N[C@@H](C)C(=O)N[C@@H](C)C(=O)N[C@@H](C)C(=O)N[C@@H](C)C(=O)N[C@@H](C)C(=O)N[C@@H](C)C(=O)O` [compound 32], 3 µM.
